Test system: 324938-238-R-J1-PDC complex spheroid growth, % test/control
Assay: Anticancer human tumor 324938-238-R-J1-PDC patient-derived bladder carcinoma cell line growth inhibition [AhR]
Details: for IC50: curve of first compound; for viability, T/C: stronger effect = lower value
Procedure, shortened: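 Agents were dosed in half-log steps down from roughly clinical Cmax, or from 10 microM where Cmax was unknown, alone and with AhR antagonists. Read-out: percent test/control growth of tumor spheroids containing HUVEC and MSC stromal cells.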

[1] = second compound 0.1 µM, first compound 0.00316 µM
[2] = second compound 0.1 µM, first compound 0.01 µM
[3] = second compound 0.1 µM, first compound 0.0316 µM
[4] = second compound 0.1 µM, first compound 0.1 µM
[5] = second compound 0.316 µM, first compound 0.00316 µM
[6] = second compound 0.316 µM, first compound 0.01 µM
[7] = second compound 0.316 µM, first compound 0.0316 µM
[8] = second compound 0.316 µM, first compound 0.1 µM
[9] = second compound 1 µM, first compound 0.00316 µM
[10] = second compound 1 µM, first compound 0.01 µM
[11] = second compound 1 µM, first compound 0.0316 µM
[12] = second compound 1 µM, first compound 0.1 µM
[13] = second compound 3.16 µM, first compound 0.00316 µM
[14] = second compound 3.16 µM, first compound 0.01 µM
[15] = second compound 3.16 µM, first compound 0.0316 µM
[16] = second compound 3.16 µM, first compound 0.1 µM
[17] = second compound 10 µM, first compound 0.00316 µM
[18] = second compound 10 µM, first compound 0.01 µM
[19] = second compound 10 µM, first compound 0.0316 µM
[20] = second compound 10 µM, first compound 0.1 µM
[21] = second compound 0.1 µM, first compound 0.316 µM
[22] = second compound 0.1 µM, first compound 1 µM
[23] = second compound 0.1 µM, first compound 3.16 µM
[24] = second compound 0.1 µM, first compound 10 µM
[25] = second compound 0.316 µM, first compound 0.316 µM
[26] = second compound 0.316 µM, first compound 1 µM
[27] = second compound 0.316 µM, first compound 3.16 µM
[28] = second compound 0.316 µM, first compound 10 µM
[29] = second compound 1 µM, first compound 0.316 µM
[30] = second compound 1 µM, first compound 1 µM
[31] = second compound 1 µM, first compound 3.16 µM
[32] = second compound 1 µM, first compound 10 µM
[33] = second compound 3.16 µM, first compound 0.316 µM
[34] = second compound 3.16 µM, first compound 1 µM
[35] = second compound 3.16 µM, first compound 3.16 µM
[36] = second compound 3.16 µM, first compound 10 µM
[37] = second compound 10 µM, first compound 0.316 µM
[38] = second compound 10 µM, first compound 1 µM
[39] = second compound 10 µM, first compound 3.16 µM
[40] = second compound 10 µM, first compound 10 µM
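Also: spheroids exposed to agents for seven days before viability read.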

SMILES	IC50 (second compound 0.1 µM)	IC50 (second compound 0.316 µM)	IC50 (second compound 1 µM)	IC50 (second compound 3.16 µM)	IC50 (second compound 10 µM)	viability, T/C [3]	viability, T/C [4]	viability, T/C [7]	viability, T/C [8]	viability, T/C [11]	viability, T/C [12]	viability, T/C [15]	viability, T/C [16]	viability, T/C [19]	viability, T/C [20]	viability, T/C [21]	viability, T/C [22]	viability, T/C [25]	viability, T/C [26]	viability, T/C [29]	also measured
CC[C@@]1(O)C(=O)OCc2c1cc1n(c2=O)Cc2cc3c(CN(C)C)c(O)ccc3nc2-1 + Cc1cncc(-c2nc(NCCc3c[nH]c4ccccc34)c3ncn(C(C)C)c3n2)c1	> 100 nM	> 100 nM	> 100 nM	> 100 nM	< 0.316 nM	83.3%	102%	77.8%	93.5%	87.6%	96.9%	79%	79.4%	3.79%	10.3%	–	–	–	–	–	viability, T/C (second compound 0.1 µM, first compound 0.000316 µM): 108%; viability, T/C (second compound 0.1 µM, first compound 0.001 µM): 151%; viability, T/C [1]: 99.7%; viability, T/C [2]: 117%; viability, T/C (second compound 0.316 µM, first compound 0.000316 µM): 70.6%; viability, T/C (second compound 0.316 µM, first compound 0.001 µM): 91.9%; viability, T/C [5]: 124%; viability, T/C [6]: 93.2%; viability, T/C (second compound 1 µM, first compound 0.000316 µM): 116%; viability, T/C (second compound 1 µM, first compound 0.001 µM): 110%; viability, T/C [9]: 114%; viability, T/C [10]: 93.4%; viability, T/C (second compound 3.16 µM, first compound 0.000316 µM): 97.8%; viability, T/C (second compound 3.16 µM, first compound 0.001 µM): 71.7%; viability, T/C [13]: 87.3%; viability, T/C [14]: 90.9%; viability, T/C (second compound 10 µM, first compound 0.000316 µM): 5.23%; viability, T/C (second compound 10 µM, first compound 0.001 µM): 3.61%; viability, T/C [17]: 4.43%; viability, T/C [18]: 3.43%
COc1cc(C2c3cc4c(cc3C(OC3OC5COC(C)OC5C(O)C3O)C3COC(=O)C23)OCO4)cc(OC)c1O (stereo not given) + Cc1cncc(-c2nc(NCCc3c[nH]c4ccccc34)c3ncn(C(C)C)c3n2)c1	> 10000 nM	> 10000 nM	> 10000 nM	> 10000 nM	< 31.6 nM	104%	113%	109%	128%	126%	102%	86%	95.2%	3.73%	10.1%	96.8%	126%	109%	87.2%	84.9%	viability, T/C [23]: 106%; viability, T/C [24]: 123%; viability, T/C [27]: 95.1%; viability, T/C [28]: 87.8%; viability, T/C [30]: 107%; viability, T/C [31]: 103%; viability, T/C [32]: 106%; viability, T/C [33]: 94.2%; viability, T/C [34]: 81.8%; viability, T/C [35]: 106%; viability, T/C [36]: 81.6%; viability, T/C [37]: 6.66%; viability, T/C [38]: 4%; viability, T/C [39]: 6.93%; viability, T/C [40]: 15%
COc1cccc2c1C(=O)c1c(O)c3c(c(O)c1C2=O)CC(O)(C(=O)CO)CC3OC1CC(N)C(O)C(C)O1 (stereo not given) + Cc1cncc(-c2nc(NCCc3c[nH]c4ccccc34)c3ncn(C(C)C)c3n2)c1	336 nM	367 nM	291 nM	181 nM	< 31.6 nM	84.2%	95.7%	65.7%	94.2%	90.7%	102%	81.8%	62.1%	4.55%	12.7%	52.8%	0.98%	57.3%	0.94%	46.3%	viability, T/C [23]: 0.76%; viability, T/C [24]: 0.41%; viability, T/C [27]: 0.57%; viability, T/C [28]: 0.38%; viability, T/C [30]: 0.36%; viability, T/C [31]: 1.27%; viability, T/C [32]: 0.47%; viability, T/C [33]: 38.9%; viability, T/C [34]: 0.31%; viability, T/C [35]: 1.98%; viability, T/C [36]: 0.43%; viability, T/C [37]: 1.27%; viability, T/C [38]: 0.29%; viability, T/C [39]: 0.45%; viability, T/C [40]: 0.62%
Nc1ccn(C2OC(CO)C(O)C2(F)F)c(=O)n1 (stereo not given) + Cc1cncc(-c2nc(NCCc3c[nH]c4ccccc34)c3ncn(C(C)C)c3n2)c1	> 10000 nM	> 10000 nM	> 10000 nM	> 10000 nM	< 31.6 nM	105%	81.5%	79.4%	61.6%	95.1%	65.9%	95.2%	74.3%	45.5%	53.7%	88.5%	51.6%	79.2%	87.2%	79.8%	viability, T/C [23]: 83.9%; viability, T/C [24]: 84.1%; viability, T/C [27]: 93.3%; viability, T/C [28]: 111%; viability, T/C [30]: 84.1%; viability, T/C [31]: 69.6%; viability, T/C [32]: 84.5%; viability, T/C [33]: 119%; viability, T/C [34]: 84.3%; viability, T/C [35]: 120%; viability, T/C [36]: 72.5%; viability, T/C [37]: 49.7%; viability, T/C [38]: 49.3%; viability, T/C [39]: 62.2%; viability, T/C [40]: 62.7%
Nc1ncn(C2CC(O)C(CO)O2)c(=O)n1 (stereo not given) + Cc1cncc(-c2nc(NCCc3c[nH]c4ccccc34)c3ncn(C(C)C)c3n2)c1	> 1000 nM	> 1000 nM	> 1000 nM	> 1000 nM	< 3.16 nM	101%	85.2%	135%	92.9%	127%	125%	104%	76.9%	6.15%	3.98%	128%	103%	80.8%	161%	84.8%	viability, T/C [1]: 120%; viability, T/C [2]: 86.4%; viability, T/C [5]: 111%; viability, T/C [6]: 103%; viability, T/C [9]: 93.4%; viability, T/C [10]: 107%; viability, T/C [30]: 98.2%; viability, T/C [13]: 83.5%; viability, T/C [14]: 76.6%; viability, T/C [33]: 100%; viability, T/C [34]: 112%; viability, T/C [17]: 4.98%; viability, T/C [18]: 1.77%; viability, T/C [37]: 4.54%; viability, T/C [38]: 7.74%

Source: PubChem BioAssay AID1918995 (Molecular Pharmacology Branch, DTP, NCI, 2023)
